Test results reported in patent US20240408093A1, “HETEROBIFUNCTIONAL COMPOUNDS AND THEIR USE IN TREATING DISEASE” (HALDA THERAPEUTICS OPCO, INC., priority 2022, published 2024).
Where two headings read alike, the source gives them in different places.

Tests used:
Format in all cases: cell-based
GSPT1 [1] = assay: Payload release assay (DC50 readout), GSPT1 degradation in the presence of recombinant target protein; conditions: I-series compounds (GSPT1 readout inferred)
Method: Exemplary compounds were tested for ability to cause degradation of CCNK or GSPT1 in the presence of recombinant target protein.
HEK293 LgBiT/GSPT1 HiBiT CRISPR Knock-in cells (Promega) were cultured in DMEM (Gibco 11995), supplemented with 10% Heat-inactivated FBS (Gibco A38400-01) and 1% Penicillin/Streptomycin (Gibco 15140-122) and 200 Vg/ml Hygromycin B (Gibco 10-687-010) at 37° C. with 5% CO2 in a humidified tissue culture incubator. HEK293 LgBiT/CCNK HiBiT cells (in-house, described above) were cultured in DMEM (Gibco 11995), supplemented with 10% Heat-inactivated FBS (Gibco A38400-01) and 1% Penicillin/Streptomycin (Gibco 15140-122) 200 Vg/ml Hygromycin B (Gibco 10-687-010), and 1 Vg/ml Puromycin Dihydrochloride (Thermo A1113803) at 37° C. with 5% CO2 in a humidified tissue culture incubator. Cells were seeded (1000 cells/well for HEK293 LgBiT/GSPT1 HiBiT cells or 3000 cells/well for HEK293 LgBiT/CCNK HiBiT cells) 384-well, tissue culture-treated white plates (Perkin Elmer 6007680) in 10 μL media lacking selection for 18-24 hours. Plates were spun at 300 g for 30 seconds and stored in the incubator overnight. After 24 hours, a 5 μL aliquot of recombinant target protein (final concentration of either 5 μM KRAS amino acids 1-169, C51S, C80L, C118S, G12C or 3 μM EGFR amino acids 696-1022 or 3 μM EGFR amino acids 696-1022, T790M, L858R) was added to wells, followed immediately by a 5 μL aliquot of 4× compound-containing medium supplemented with Endurazine Substrate (Promega N2570) was added in each well, at a final top concentration of 10 μM test compound and 0.5× Endurazine, with 4-fold dilutions, using DMSO alone as a negative control. Plates were then spun at 300×g for 3 minutes again and cultured at 37° C. with 5% CO2. After 6 hours the plate was read on Envision MultiMode Plate Reader 2105 (Perkin Elmer) to measure luminescence signal. Data was normalized to DMSO treated cell wells. A four-parameter non-linear regression curve fit was applied to dose-response data in Prism to determine the half maximal growth inhibitory concentration (GI50) of each compound.

[2] = test system: HEK293 cells (ATCC CRL-1573); assay: Cellular growth inhibition assay, HEK293 cells (Example 16); conditions: Homo sapiens, 72 hours, CellTiter-Glo 2.0
GSPT1 [3] = molecular target: T1, GSPT1 (Homo sapiens, UniProt P15170+Q96SW2); assay: GSPT1 HiBiT degradation assay; conditions: HEK293 LgBiT GSPT1 HiBiT cells, 6 hours
T1 construct: host or cells: HEK293 LgBiT / GSPT1 HiBiT CRISPR knock-in
T1 sequence (P15170 whole entry): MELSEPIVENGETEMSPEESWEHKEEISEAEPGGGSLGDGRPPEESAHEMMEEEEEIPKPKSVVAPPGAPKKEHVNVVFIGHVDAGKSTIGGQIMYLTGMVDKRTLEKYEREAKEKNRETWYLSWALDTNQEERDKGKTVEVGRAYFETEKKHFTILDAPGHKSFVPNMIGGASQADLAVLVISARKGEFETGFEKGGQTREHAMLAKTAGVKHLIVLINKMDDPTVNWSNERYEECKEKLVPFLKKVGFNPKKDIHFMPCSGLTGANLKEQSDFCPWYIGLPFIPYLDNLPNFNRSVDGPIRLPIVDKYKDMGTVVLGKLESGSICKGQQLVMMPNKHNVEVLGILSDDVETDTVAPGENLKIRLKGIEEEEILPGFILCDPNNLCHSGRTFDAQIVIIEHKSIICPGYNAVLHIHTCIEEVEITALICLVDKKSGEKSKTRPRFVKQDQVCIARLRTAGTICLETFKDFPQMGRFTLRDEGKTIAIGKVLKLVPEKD
T1 sequence (Q96SW2 whole entry): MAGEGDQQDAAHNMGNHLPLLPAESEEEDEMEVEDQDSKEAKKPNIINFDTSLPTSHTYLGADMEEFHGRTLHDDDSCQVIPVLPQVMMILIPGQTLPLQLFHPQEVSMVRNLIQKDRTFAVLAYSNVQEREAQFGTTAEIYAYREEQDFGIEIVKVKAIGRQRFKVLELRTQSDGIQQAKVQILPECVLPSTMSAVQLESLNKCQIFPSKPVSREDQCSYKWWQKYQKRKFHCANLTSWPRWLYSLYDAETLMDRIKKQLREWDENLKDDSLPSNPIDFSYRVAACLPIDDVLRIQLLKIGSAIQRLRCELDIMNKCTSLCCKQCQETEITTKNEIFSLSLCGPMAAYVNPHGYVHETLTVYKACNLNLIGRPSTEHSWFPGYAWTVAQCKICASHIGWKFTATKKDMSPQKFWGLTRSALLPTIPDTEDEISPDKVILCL
T1 sequence (Q16531 whole entry partner): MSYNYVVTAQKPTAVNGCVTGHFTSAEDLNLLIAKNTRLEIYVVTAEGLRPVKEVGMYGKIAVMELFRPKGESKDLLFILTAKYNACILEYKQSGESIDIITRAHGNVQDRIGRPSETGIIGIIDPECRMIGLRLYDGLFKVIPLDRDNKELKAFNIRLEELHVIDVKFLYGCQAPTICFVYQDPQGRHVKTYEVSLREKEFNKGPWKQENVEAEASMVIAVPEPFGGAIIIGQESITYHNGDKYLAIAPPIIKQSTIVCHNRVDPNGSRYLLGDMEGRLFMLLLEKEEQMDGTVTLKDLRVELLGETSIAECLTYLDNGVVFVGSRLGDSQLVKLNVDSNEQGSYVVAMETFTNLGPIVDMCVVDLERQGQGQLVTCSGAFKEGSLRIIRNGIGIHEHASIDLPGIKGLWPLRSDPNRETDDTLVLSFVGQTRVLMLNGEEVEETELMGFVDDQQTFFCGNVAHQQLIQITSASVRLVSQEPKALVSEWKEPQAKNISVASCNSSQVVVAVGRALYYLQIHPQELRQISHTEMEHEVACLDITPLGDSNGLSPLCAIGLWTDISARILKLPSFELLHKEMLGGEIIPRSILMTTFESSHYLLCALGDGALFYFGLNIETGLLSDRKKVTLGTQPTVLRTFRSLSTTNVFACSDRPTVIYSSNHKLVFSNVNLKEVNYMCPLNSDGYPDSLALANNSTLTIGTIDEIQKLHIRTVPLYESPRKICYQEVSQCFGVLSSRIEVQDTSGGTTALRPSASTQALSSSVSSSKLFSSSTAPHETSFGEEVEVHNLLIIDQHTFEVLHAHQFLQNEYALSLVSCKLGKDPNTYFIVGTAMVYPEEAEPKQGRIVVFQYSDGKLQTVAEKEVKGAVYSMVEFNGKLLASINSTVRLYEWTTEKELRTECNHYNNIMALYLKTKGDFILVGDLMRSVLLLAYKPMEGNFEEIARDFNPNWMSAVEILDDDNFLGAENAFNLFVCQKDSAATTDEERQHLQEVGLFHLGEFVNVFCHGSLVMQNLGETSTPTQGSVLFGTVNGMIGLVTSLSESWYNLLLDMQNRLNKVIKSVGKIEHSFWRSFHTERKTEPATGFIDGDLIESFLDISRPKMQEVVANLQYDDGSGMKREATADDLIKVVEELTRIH
Outline: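 HEK293 CRISPR knock-in cells expressing LgBiT and GSPT1-HiBiT were seeded at 1000 cells/well and, after 18-24 h, treated with titrated compound plus endurazine (0.5× final) at 37 °C. Luminescence read after 6 h; loss of signal reflects GSPT1 degradation, giving DC50.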

HeLa cells (ATCC CCL-2) = assay: Cellular growth inhibition assay, HeLa cells (Example 16); conditions: Homo sapiens, 72 hours, CellTiter-Glo 2.0
[4] = 0 μM recombinant KRAS G12C, read-out: DC50 at 0 μM KRAS G12C
[5] = 5 μM recombinant KRAS G12C, read-out: DC50 at 5 μM KRAS G12C
[6] = 0 μM recombinant EGFR T790M L858R, read-out: DC50 at 0 μM EGFR T790M L858R
[7] = 0 μM recombinant EGFR WT, read-out: DC50 at 0 μM EGFR WT
[8] = 3 μM recombinant EGFR T790M L858R, read-out: DC50 at 3 μM EGFR T790M L858R
[9] = 3 μM recombinant EGFR WT, read-out: DC50 at 3 μM EGFR WT

Row | DC50 (GSPT1 [1]; [6]) | DC50 (GSPT1 [1]; [7]) | DC50 (GSPT1 [1]; [8]) | DC50 (GSPT1 [1]; [9]) | Structure (SMILES) | DC50 (GSPT1 [1]; [4]) | DC50 (GSPT1 [1]; [5]) | GI50 [2] | DC50 (GSPT1 [3]) | GI50 (HeLa cells (ATCC CCL-2))
1 |  |  |  |  | C=C(COc1cc(Cl)cc(NC(=O)NCc2ccc3c(c2)CN(C2CCC(=O)NC2=O)C3=O)c1)C(=O)N1CC2(CC(n3nc(-c4ccc5c(cnn5C)c4)c(-c4c(Cl)c(C)cc5[nH]ncc45)c3C)C2)C1 (centres unmarked) [Compound I-56] | < 250 nM | < 250 nM | 500 to 1500 nM | > 2500 nM | < 500 nM
2 |  |  |  |  | C=C(CN(C)c1cccc(NC(=O)NCc2ccc3c(c2)CN(C2CCC(=O)NC2=O)C3=O)c1)C(=O)N1CCN(c2nc(OC[C@@H]3CCCN3C)nc3c2CCN(c2cccc4cccc(Cl)c24)C3)C[C@@H]1CC#N (some centres unmarked) [Compound I-58] | > 10000 nM | 5000 to 10000 nM | 1500 to 10000 nM | > 2500 nM | 1500 to 10000 nM
3 | < 250 nM | < 250 nM | < 250 nM | < 250 nM | C=C(COc1cc(Cl)cc(NC(=O)NCc2ccc3c(c2)CN(C2CCC(=O)NC2=O)C3=O)c1)C(=O)Nc1cc(Nc2nccc(-c3cn(C)c4ccccc34)n2)c(OC)cc1N(C)CCN(C)C (centres unmarked) [Compound I-59] |  |  | < 500 nM | 50 to 500 nM | 1500 to 10000 nM
4 | 250 to 5000 nM | 250 to 5000 nM | 250 to 5000 nM | 250 to 5000 nM | C=C(COc1c(Cl)cccc1NC(=O)NCc1ccc2c(c1)CN(C1CCC(=O)NC1=O)C2=O)C(=O)Nc1cc(Nc2nccc(-c3cn(C)c4ccccc34)n2)c(OC)cc1N(C)CCN(C)C (centres unmarked) [Compound I-60] |  |  | 500 to 1500 nM | 500 to 2500 nM | 1500 to 10000 nM
5 | < 250 nM | < 250 nM | < 250 nM | < 250 nM | C=C(COc1cc(Cl)cc(NC(=O)NCc2ccc3c(c2)CN(C2CCC(=O)NC2=O)C3=O)c1)C(=O)Nc1cccc(-c2cccc3cnc(Nc4ccc(N5CCN(CCO)CC5)c(F)c4F)nc23)c1 (centres unmarked) [Compound I-61] |  |  | < 500 nM | 50 to 500 nM | 1500 to 10000 nM
6 |  |  |  |  | C=C(COc1cc(F)c(F)cc1NC(=O)NCc1ccc2c(c1)CN(C1CCC(=O)NC1=O)C2=O)C(=O)N1CCN(c2nc(OC[C@@H]3CCCN3C)nc3c2CCN(c2cccc4cccc(Cl)c24)C3)C[C@@H]1CC#N (some centres unmarked) [Compound I-62] | 250 to 5000 nM | < 250 nM | > 10000 nM | 500 to 2500 nM | > 10000 nM
7 |  |  |  |  | C=C(COc1ccccc1CNC(=O)NCc1ccc2c(c1)CN(C1CCC(=O)NC1=O)C2=O)C(=O)N1CCN(c2nc(OC[C@@H]3CCCN3C)nc3c2CCN(c2cccc4cccc(Cl)c24)C3)C[C@@H]1CC#N (some centres unmarked) [Compound I-63] | > 10000 nM | > 10000 nM | > 10000 nM | > 2500 nM | > 10000 nM
8 |  |  |  |  | C=C(COc1cc(Cl)cc(NC(=O)NCc2cc3c(cc2F)C(=O)N(C2CCC(=O)NC2=O)C3)c1)C(=O)N1CCN(c2nc(OC[C@@H]3CCCN3C)nc3c2CCN(c2cccc4cccc(Cl)c24)C3)C[C@@H]1CC#N (some centres unmarked) [Compound I-64] | 250 to 5000 nM | < 250 nM | 500 to 1500 nM | 500 to 2500 nM | > 10000 nM
9 |  |  |  |  | C=C(COc1cc(Cl)c(OC)cc1NC(=O)NCc1ccc2c(c1)CN(C1CCC(=O)NC1=O)C2=O)C(=O)N1CC2(CC(n3nc(-c4ccc5c(cnn5C)c4)c(-c4c(Cl)c(C)cc5[nH]ncc45)c3C)C2)C1 (centres unmarked) [Compound I-66] | < 250 nM | < 250 nM | < 500 nM | 50 to 500 nM | 500 to 1500 nM
10 |  |  |  |  | C=C(COc1cc(NC(=O)NCc2ccc3c(c2)CN(C2CCC(=O)NC2=O)C3=O)cc(OC)c1)C(=O)N1CC2(CC(n3nc(-c4ccc5c(cnn5C)c4)c(-c4c(Cl)c(C)cc5[nH]ncc45)c3C)C2)C1 (centres unmarked) [Compound I-67] | 250 to 5000 nM | 250 to 5000 nM | > 10000 nM | 500 to 2500 nM | > 10000 nM
11 |  |  |  |  | C=C(COc1cc(NC(=O)NCc2ccc3c(c2F)CN(C2CCC(=O)NC2=O)C3=O)cc(C(F)(F)F)c1)C(=O)N1CC2(CC(n3nc(-c4ccc5c(cnn5C)c4)c(-c4c(Cl)c(C)cc5[nH]ncc45)c3C)C2)C1 (centres unmarked) [Compound I-68] | > 10000 nM | > 10000 nM | < 500 nM | > 2500 nM | > 10000 nM
12 | < 250 nM | < 250 nM | < 250 nM | < 250 nM | C=C(COc1c(Cl)cccc1NC(=O)NCc1ccc2c(c1)CN(C1CCC(=O)NC1=O)C2=O)C(=O)N[C@@H]1CN(c2nc(Nc3cn(C)nc3OC)c3ncn(C)c3n2)C[C@H]1F (some centres unmarked) [Compound I-69] |  |  | < 500 nM | 50 to 500 nM | 500 to 1500 nM
13 | 250 to 5000 nM | 250 to 5000 nM | 250 to 5000 nM | 250 to 5000 nM | C=C(CN(C(=O)NCc1ccc2c(c1)CN(C1CCC(=O)NC1=O)C2=O)c1ccc(C)c(Cl)c1)C(=O)Nc1cccc(Oc2nc(Nc3ccc(N4CCN(C)CC4)cc3)nc3ccsc23)c1 (centres unmarked) [Compound I-70] |  |  | 1500 to 10000 nM | > 2500 nM | > 10000 nM
14 | 250 to 5000 nM | 250 to 5000 nM | 250 to 5000 nM | 250 to 5000 nM | C=C(CN(C(=O)NCc1ccc2c(c1)CN(C1CCC(=O)NC1=O)C2=O)c1ccc(C)c(Cl)c1)C(=O)N1C[C@@H](COc2nc(Nc3cnn(C)c3)nc3[nH]cc(Cl)c23)[C@H](OC)C1 (some centres unmarked) [Compound I-71] |  |  | 500 to 1500 nM | 500 to 2500 nM | > 10000 nM
15 |  |  |  |  | C=C(COC(=O)c1c(C)csc1NC(=O)NCc1ccc2c(c1)CN(C1CCC(=O)NC1=O)C2=O)C(=O)N1CCN(c2nc(OC[C@@H]3CCCN3C)nc3c2CCN(c2cccc4cccc(Cl)c24)C3)C[C@@H]1CC#N (stereo partly drawn) [Compound I-72, 2-[(2S)-4-[7-(8-chloro-1-naphthyl)-2-[[(2S)-1-methylpyrrolidin-2-yl]methoxy]-6,8-dihydro-5H-pyrido[3,4-d]pyrimidin-4-yl]-2-(cyanomethyl)piperazine-1-carbonyl]allyl 2-[[2-(2,6-dioxo-3-piperidyl)-1-oxo-isoindolin-5-yl]methylcarbamoylamino]-4-methyl-thiophene-3-carboxylate] | > 10000 nM | 250 to 5000 nM | 1500 to 10000 nM | > 2500 nM | 1500 to 10000 nM
16 |  |  |  |  | C=C(COC(=O)NCc1cc(Cl)cc(NC(=O)NCc2ccc3c(c2)CN(C2CCC(=O)NC2=O)C3=O)c1)C(=O)N1CCN(c2nc(OC[C@@H]3CCCN3C)nc3c2CCN(c2cccc4cccc(Cl)c24)C3)C[C@@H]1CC#N (some centres unmarked) [Compound I-73] | < 250 nM | < 250 nM | < 500 nM | 50 to 500 nM | 1500 to 10000 nM
17 |  |  |  |  | C=C(COC(=O)NCCCc1cc(Cl)cc(NC(=O)NCc2ccc3c(c2)CN(C2CCC(=O)NC2=O)C3=O)c1)C(=O)N1CCN(c2nc(OC[C@@H]3CCCN3C)nc3c2CCN(c2cccc4cccc(Cl)c24)C3)C[C@@H]1CC#N (some centres unmarked) [Compound I-74] | 250 to 5000 nM | < 250 nM | 500 to 1500 nM | 500 to 2500 nM | 1500 to 10000 nM
18 |  |  |  |  | C=C(COc1cc(NC(=O)NCc2ccc3c(c2)CN(C2CCC(=O)NC2=O)C3=O)cc(F)c1F)C(=O)N1CCN(c2nc(OC[C@@H]3CCCN3C)nc3c2CCN(c2cccc4cccc(Cl)c24)C3)C[C@@H]1CC#N (some centres unmarked) [Compound I-75] | > 10000 nM | > 10000 nM | > 10000 nM | > 2500 nM | > 10000 nM
19 |  |  |  |  | C=C(COc1ccc(Cl)cc1NC(=O)NCc1ccc2c(c1)CN(C1CCC(=O)NC1=O)C2=O)C(=O)N1CC2(CC(n3nc(-c4ccc5c(cnn5C)c4)c(-c4c(Cl)c(C)cc5[nH]ncc45)c3C)C2)C1 (centres unmarked) [Compound I-76] | < 250 nM | < 250 nM | < 500 nM | 50 to 500 nM | 500 to 1500 nM
